Activity calls are given as the source filed them. The rule behind the calls is not given here.
How the values were obtained:
Escherichia coli = experiment: Tested for antibacterial activity against Escherichia coli; IA - No useful antibacterial activity; format: functional, organism-based
Staphylococcus aureus = experiment: Tested for antibacterial activity against Staphylococcus aureus; IA - No useful antibacterial activity; format: functional, organism-based
Streptococcus pneumoniae = experiment: Tested for antibacterial activity against Streptococcus pneumoniae; IA - No useful antibacterial activity; format: functional, organism-based
[1] = Half life in pH 7 buffer solution was determined; format: ADME

For CO/N=C(/C(=O)N[C@H]1CN(c2c(O)c(=O)c2=O)C1=O)c1csc(N)n1, the Activity (Escherichia coli) was “inactive”, the Activity (Staphylococcus aureus) was “inactive” and the Activity (Streptococcus pneumoniae) was “inactive”.
In the case of O=C(COc1ccccc1)N[C@H]1CN(c2c([O-])c(=O)c2=O)C1=O.[K+], the Activity (Escherichia coli) is reported as “inactive”, the Activity (Staphylococcus aureus) is reported as “inactive” and the Activity (Streptococcus pneumoniae) is reported as “inactive”. For the same compound, the half-life [1] was 3 days.
With C[C@H]1[C@H](NC(=O)COc2ccccc2)C(=O)N1c1c([O-])c(=O)c1=O.[K+] the Activity (Escherichia coli) was “inactive”, the Activity (Staphylococcus aureus) was “inactive” and the Activity (Streptococcus pneumoniae) was “inactive”. The half-life [1] was 7 days.

Source: ChEMBL document CHEMBL1126374, “Synthesis of -(S)-acylamino-N-(hydroxydioxocyclobutenyl)--lactams as potential antibiotics” (Bioorg Med Chem Lett, 1992)
